# The NIST ThermoML archive (doi:10.1016/j.jct.2008.04.016)
# Numbers after ± are expanded uncertainties.
# What was measured:
# [1] = for viscosity / mass density: 101.33 kPa, Liquid
# [2] = refractive index (Na D-line) (dimensionless); conditions: 101.33 kPa, Liquid
SMILES,viscosity ([1]; 288.2 K) [mPa·s],surface tension liquid-gas ([1]; 298.15 K) [mN/m],mass density ([1]; 298.15 K) [kg/m3],viscosity ([1]; 298.2 K) [mPa·s],surface tension liquid-gas ([1]; 308.15 K) [mN/m],mass density ([1]; 308.15 K) [kg/m3],viscosity ([1]; 308.2 K) [mPa·s],surface tension liquid-gas ([1]; 318.15 K) [mN/m],mass density ([1]; 318.15 K) [kg/m3],viscosity ([1]; 318.2 K) [mPa·s],surface tension liquid-gas ([1]; 328.15 K) [mN/m],mass density ([1]; 328.15 K) [kg/m3],viscosity ([1]; 328.2 K) [mPa·s],surface tension liquid-gas ([1]; 338.15 K) [mN/m],mass density ([1]; 338.15 K) [kg/m3],mass density ([1]; 348.15 K) [kg/m3],mass density ([1]; 358.15 K) [kg/m3],refractive index ([2]; 302.95 K),refractive index ([2]; 307.75 K),refractive index ([2]; 313.15 K),also measured
CCCCCCn1cc[n+](C)c1.F[B-](F)(F)F [1-hexyl-3-methylimidazolium tetrafluoroborate],141 ± 25,36.8 ± 1.5,1145.32 ± 1.3,102 ± 24,35.6 ± 1.5,1138.51 ± 1.3,69 ± 24,34.2 ± 1.5,1131.67 ± 1.3,43,33 ± 1.4,1124.89 ± 1.2,30,32.7 ± 1.4,1118.16 ± 1.2,1111.47 ± 1.1,1104.84 ± 1.1,1.42672 ± 0.0013,1.42613 ± 0.0013,1.42539 ± 0.0013,viscosity ([1]; 338.2 K): 21 mPa·s; refractive index ([2]; 318.05 K): 1.42443 ± 0.0013; refractive index ([2]; 322.95 K): 1.42346 ± 0.0013; refractive index ([2]; 328.05 K): 1.42232 ± 0.0013; refractive index ([2]; 332.95 K): 1.42146 ± 0.0013
CCCCCC[n+]1ccn(C)c1.O=S(=O)([N-]S(=O)(=O)C(F)(F)F)C(F)(F)F,97 ± 24,32.5 ± 1.4,1372.13 ± 2.5,68 ± 24,31.6 ± 1.4,1363.17 ± 2.5,46,30.5 ± 1.4,1354.23 ± 2.4,32,29.7 ± 1.4,1344.94 ± 2.4,24,28.6 ± 1.3,1335.86 ± 2.3,1326.91 ± 2.3,1318.16 ± 2.2,1.42958 ± 0.0013,1.42844 ± 0.0013,1.42737 ± 0.0013,refractive index ([2]; 318.05 K): 1.42649 ± 0.0013; refractive index ([2]; 322.95 K): 1.42578 ± 0.0013; refractive index ([2]; 328.05 K): 1.42484 ± 0.0013; refractive index ([2]; 332.95 K): 1.42376 ± 0.0013
CCCCCCn1cc[n+](C)c1.F[P-](F)(F)(F)(F)F [1-hexyl-3-methylimidazolium hexafluorophosphate],1018 ± 210,42.1 ± 2,1293.41 ± 2.1,607 ± 100,40.7 ± 2,1285.78 ± 2.1,345 ± 48,39.4 ± 1.9,1277.92 ± 2,215 ± 31,38 ± 1.9,1269.88 ± 2,152 ± 26,36.6 ± 1.8,1262.13 ± 1.9,1254.36 ± 1.9,1246.81 ± 1.9,1.41694 ± 0.0013,1.41631 ± 0.0013,1.41531 ± 0.0013,viscosity ([1]; 338.2 K): 113 ± 24 mPa·s; viscosity ([1]; 348.2 K): 87 ± 24 mPa·s; refractive index ([2]; 318.05 K): 1.41479 ± 0.0013; refractive index ([2]; 322.95 K): 1.41362 ± 0.0013; refractive index ([2]; 328.05 K): 1.41307 ± 0.0013; refractive index ([2]; 332.95 K): 1.41231 ± 0.0013
